According to patent US20260008818A1, “CYCLIC PEPTIDE OR SALT THEREOF, AND USES THEREOF” (FUJIFILM Corporation, priority 2023, published 2026):
Ends that are not written are not given here.

Key:
[1] = system: BaF3 cells stably expressing FGFR (human); experiment: Cell proliferation-promoting effect on BaF3 cells stably expressing human FGFR; type: cell-based; conditions: BaF3 with human FGFR; viable cells at the addition concentration (0.001 to 10 nmol/L) with largest number; 2 nights
Description: (§1) The FGFR phosphorylation ability of the cyclic peptide complex was evaluated using the BaF3 cell proliferation-promoting effect in which FGFR was stably expressed.
(§2) BaF3 cells stably expressing FGFR were established by introducing a vector (human: Gene Copocia, EX-Y2820-M67, bovine: sequence of Accession No. A4IFL5 was introduced into pCDNA3.1/Hygro(+) Mammalian Expression Vector (Thermo, V87020), porcine: sequence of Accession No. A0A8DIE4H1 was introduced into pCDNA3.1/Hygro(+) Mammalian Expression Vector (Thermo, V87020), and avian: sequence of Accession No. P21804 was introduced into pCDNA3.1/Hygro(+) Mammalian Expression Vector (Thermo, V87020)) into which FGFR gene had been incorporated, into BaF3 cells using NucleoFector (Lonza) and performing drug selection of cells into which the FGFR gene had been introduced using hygromycin.
(§3) The evaluation of the proliferation-promoting effect of BaF3 cells in which FGFR is stably expressed was performed by the following method. First, RPMI-1640 with L-Glutamine and Phenol Red (FUJIFILM Wako Pure Chemical Corporation, 189-02025) and Fetal Bovine Serum (Thermo, 10270-106) were mixed at a volume ratio of 9:1, and then heparin (STEM CELL, 07980) was added thereto such that the final concentration thereof was 8 μg/mL, thereby preparing a culture medium for evaluation (hereinafter, described as RPMI (10% FBS) medium). Next, the BaF3 cells in which FGFR had been stably expressed were washed twice with RPMI (10% FBS) culture medium, suspended in RPMI (10% FBS) culture medium in which the cyclic peptide complex had been dissolved to a final concentration of 0.001 to 10 nmol/L, and seeded in a 384-well plate. In this case, a condition in which the cyclic peptide complex was not added as a negative control was prepared. After culturing at 37° C. (5% CO2) for 2 nights, Hoechst 33342, Trihydrochloride, Trihydrate—10 mg/mL Solution in Water (Thermo, H3570), -Cellstain (registered trademark)-Calcein-AM solution (1 mg/mL DMSO solution) (DOJINDO, C396), and -Cellstain (registered trademark)-PI solution (DOJINDO, P378) were each added to RPMI (10% FBS) culture medium in a volume amount of 1/1,000 at the final concentration, and live/dead staining of the cells were performed by allowing to stand at room temperature for 1 hour, and imaging was performed using a confocal microscope (Yokogawa Electric Corporation, CQ1). The number of viable cells was calculated from the imaging data, and the cell proliferation-promoting effect was evaluated according to the following evaluation criteria. The number of viable cells in the negative control was about 20 cells/well. The evaluation result preferably satisfies the evaluation criteria A, B, or C. […]

[2] = system: BaF3 cells stably expressing FGFR (bovine); experiment: Cell proliferation-promoting effect on BaF3 cells stably expressing bovine FGFR; type: cell-based; conditions: BaF3 with bovine FGFR; viable cells at the addition concentration (0.001 to 10 nmol/L) with largest number; 2 nights
Description: as §1, §2, §3

[3] = system: BaF3 cells stably expressing FGFR (porcine); experiment: Cell proliferation-promoting effect on BaF3 cells stably expressing porcine FGFR; type: cell-based; conditions: BaF3 with porcine FGFR; viable cells at the addition concentration (0.001 to 10 nmol/L) with largest number; 2 nights
Description: as §1, §2, §3

[4] = system: BaF3 cells stably expressing FGFR (avian); experiment: Cell proliferation-promoting effect on BaF3 cells stably expressing avian FGFR; type: cell-based; conditions: BaF3 with avian FGFR; viable cells at the addition concentration (0.001 to 10 nmol/L) with largest number; 2 nights
Description: as §1, §2, §3

[5] = Stability of cyclic peptide after alkali treatment, LC; type: physicochemical; conditions: alkali treatment: 0.5 mol/L sodium hydroxide aqueous solution, room temperature, 3 hours
Description: In addition, the stability of the cyclic peptide (SEQ ID NO: 382) containing a cysteine residue in the cyclized portion and the cyclic peptide (SEQ ID NO: 374) containing a homocysteine residue in the cyclized portion was compared under the following alkali treatment, which is a more severe condition.
The alkali treatment was performed by the following method. 25 μL of a 0.2 mg/mL cyclic peptide aqueous solution was prepared, 58.8 μL of a 0.5 mol/L sodium hydroxide aqueous solution was added to the aqueous solution, and the mixture was incubated at room temperature for 3 hours to obtain an aqueous solution of the cyclic peptide alkali-treated. The total area of all the peaks in LC/MS of the cyclic peptide before the alkali treatment was set to 100%, and the proportion of the total area of all the peaks in LC/MS of the aqueous solution of the cyclic peptide alkali-treated was determined to calculate the residual rate of the cyclic peptide.
The LC conditions used for the evaluation of molecular stability are the same as those in the measurement of the above-described cyclic peptide treated with a reducing agent.

[6] = system: hMSC-Human Mesenchymal Stem Cells; experiment: Effect of maintaining MSC undifferentiated potency (gene expression); type: cell-based
Description: The effect of maintaining mesenchymal stem cell (MSC) undifferentiated potency of the cyclic peptide complex was evaluated.
MSC was prepared in the same manner as in Example 7.
The evaluation of the effect of maintaining the MSC undifferentiated potency was performed by the following method. First, a culture medium (hereinafter, referred to as a custom culture medium) in which bFGF was removed from PRIME-XV MSC Expansion XSFM (FUJIFILM Irvine Scientific, Inc., 91149) was prepared. Next, Prime-XV Human Fibronectin (FUJIFILM Irvine Scientific, Inc., 31002) was dissolved in PBS (Fujifilm Wako Pure Chemical Corporation, 164-23551), 2 μg/cm^2 of the solution was added to a 12-well plate used for proliferation, and the 12-well plate was allowed to stand at room temperature for 3 hours to coat the 12-well plate with fibronectin. Thereafter, the MSCs subjected to the subculture were peeled using Tryple Express (Thermo, 12604-013), washed once with a custom culture medium, suspended in a custom culture medium in which a cyclic peptide complex or bFGF (R&D Systems, 3718-GMP) was diluted to final concentrations of 3 nmol/L and 1 nmol/L, and seeded on a 12-well plate coated with fibronectin. In this case, conditions in which the cyclic peptide complex and bFGF were not added as a negative control were prepared. After culturing at 37° C. (5% CO2) for 2 nights, the culture medium was replaced by removing the supernatant of the culture medium and adding the same amount of a culture medium prepared to have the same composition as the removed culture medium. After further culturing at 37° C. (5% CO2) for 2 nights, RNA was extracted using an RNeasy Plus Mini Kit (Qiagen, 74136) according to the manufacturer's protocol. […] The expression level of each gene was normalized by setting the expression level of the well to which 1 nmol/L bFGF was added to 1.

[7] = 1 nmol/L bFGF versus condition without bFGF (negative control)

Row | Substance | Evaluation result of cell proliferative properties Human [1] | Evaluation result of cell proliferative properties Bovine [2] | Evaluation result of cell proliferative properties Porcine [3] | Evaluation result of cell proliferative properties Avian [4] | residual rate of the cyclic peptide [5] [%] | expression level of Nanog [6, 7] | expression level of Oct4 [6, 7] | expression level of Sox2 ([6]; cyclic peptide complex 3 nmol/L or bFGF 1 nmol/L, normalized to 1 nmol/L bFGF = 1, bFGF compared with negative control)
1 | 391 (HCSYERLQFHGHEAPFRVKVGHCSYERLQFHGHEAPFRVKV; also: cyclic, closure not given here) [compound 391] | A (The number of viable cells is 400 cells/well or more.) | A (The number of viable cells is 400 cells/well or more.) | B (The number of viable cells is 200 cells/well or more and less than 400 cells/well.) | A (The number of viable cells is 400 cells/well or more.) |  |  |  | 
2 | 392 (HCSYERLQFHGHEAPFRVKVHCSYERLQFHGHEAPFRVKV; also: cyclic, closure not given here) [compound 392] | A (The number of viable cells is 400 cells/well or more.) | A (The number of viable cells is 400 cells/well or more.) | B (The number of viable cells is 200 cells/well or more and less than 400 cells/well.) | B (The number of viable cells is 200 cells/well or more and less than 400 cells/well.) |  |  |  | 
3 | 395 (CSYERLQFHGHEAPFRVKVCSYERLQFHGHEAPFRVKV; also: cyclic, closure not given here) [compound 395] | B (The number of viable cells is 200 cells/well or more and less than 400 cells/well.) | A (The number of viable cells is 400 cells/well or more.) | B (The number of viable cells is 200 cells/well or more and less than 400 cells/well.) | B (The number of viable cells is 200 cells/well or more and less than 400 cells/well.) |  |  |  | 
4 | 396 (CSYERLQFHGHEAPFRVKVCSYERLQFHGHEAPFRVKV; also: cyclic peptide) [compound 396] | A (The number of viable cells is 400 cells/well or more.) | A (The number of viable cells is 400 cells/well or more.) | B (The number of viable cells is 200 cells/well or more and less than 400 cells/well.) | A (The number of viable cells is 400 cells/well or more.) |  |  |  | 
5 | H-(C)-SYERLQFHGHEAPFRV-(K(acetyl))-VKKK [SEQ ID NO: 382] |  |  |  |  | 26 |  |  | 
6 | H-(Hcy)-SYERLQFHGHEAPFRV-(K(acetyl))-VKKK [SEQ ID NO: 374] |  |  |  |  | 32 |  |  | 
7 | bFGF: basic fibroblast growth factor (R&D Systems, 3718-GMP) |  |  |  |  |  | did not change substantially | did not change substantially | changed
